Measurements from US9593123B2, “Triazolo[4,5-D]pyrimidine derivatives” (Hoffmann-La Roche Inc., priority 2013, dated 2017).

Legend:
human CB2 receptor = human CB2 receptor (Homo sapiens (Human), UniProt P34972); test: cAMP assay, CHO cells expressing human CB2 receptors; assay type: cell-based; conditions: functional cAMP assay, read-out: CB2 hcAMP EC50
Protocol: (§1) CHO cells expressing human CB1 or CB2 receptors are seeded 17-24 hours prior to the experiment 50.000 cells per well in a black 96 well plate with flat clear bottom (Corning Costar #3904) in DMEM (Invitrogen No. 31331), 1×HT supplement, with 10% fetal calf serum and incubated at 5% CO2 and 37° C. in a humidified incubator. The growth medium was exchanged with Krebs Ringer Bicarbonate buffer with 1 mM IBMX and incubated at 30° C. for 30 min. Compounds were added to a final assay volume of 100 μl and incubated for 30 min at 30° C. Using the cAMP-Nano-TRF detection kit the assay (Roche Diagnostics) was stopped by the addition of 50 μl lysis reagent (Tris, NaCl, 1.5% Triton X100, 2.5% NP40, 10% NaN3) and 50 μl detection solutions (20 μM mAb Alexa700-cAMP 1:1, and 48 μM Ruthenium-2-AHA-cAMP) and shaken for 2 h at room temperature. The time-resolved energy transfer is measured by a TRF reader (Evotec Technologies GmbH), equipped with a ND:YAG laser as excitation source. The plate is measured twice with the excitation at 355 nm and at the emission with a delay of 100 ns and a gate of 100 ns, total exposure time 10 s at 730 (bandwidth 30 nm) or 645 nm (bandwidth 75 nm), respectively. The FRET signal is calculated as follows: FRET=T730-Alexa730-P(T645-B645) with P=Ru730-B730/Ru645-B645, where T730 is the test well measured at 730 nM, T645 is the test well measured at 645 nm, B730 and B645 are the buffer controls at 730 nm and 645 nm, respectively. cAMP content is determined from the function of a standard curve spanning from 10 μM to 0.13 nM cAMP.
(§2) EC50 values were determined using Activity Base analysis (ID Business Solution, Limited). The EC50 values for a wide range of cannabinoid agonists generated from this assay were in agreement with the values published in the scientific literature.

human CB1 receptor = human CB1 receptor (Homo sapiens (Human), UniProt P21554); test: cAMP assay, CHO cells expressing human CB1 receptors; assay type: cell-based; conditions: functional cAMP assay, read-out: CB1 hcAMP EC50
human CB1 receptor, sequence (P21554 whole entry): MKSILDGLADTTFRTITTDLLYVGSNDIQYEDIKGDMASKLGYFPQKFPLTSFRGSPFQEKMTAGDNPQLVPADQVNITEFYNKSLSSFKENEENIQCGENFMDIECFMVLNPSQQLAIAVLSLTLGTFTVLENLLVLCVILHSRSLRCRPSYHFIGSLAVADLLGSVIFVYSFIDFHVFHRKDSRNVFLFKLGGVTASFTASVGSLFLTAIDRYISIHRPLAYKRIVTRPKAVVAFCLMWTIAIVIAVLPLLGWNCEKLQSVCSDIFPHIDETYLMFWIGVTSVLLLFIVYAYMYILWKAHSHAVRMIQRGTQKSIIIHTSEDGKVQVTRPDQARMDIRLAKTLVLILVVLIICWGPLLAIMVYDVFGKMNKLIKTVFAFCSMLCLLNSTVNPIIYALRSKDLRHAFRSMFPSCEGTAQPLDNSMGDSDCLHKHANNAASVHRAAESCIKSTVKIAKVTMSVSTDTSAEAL
Protocol: as §1, §2

human CB2 receptor, sequence (P34972 whole entry): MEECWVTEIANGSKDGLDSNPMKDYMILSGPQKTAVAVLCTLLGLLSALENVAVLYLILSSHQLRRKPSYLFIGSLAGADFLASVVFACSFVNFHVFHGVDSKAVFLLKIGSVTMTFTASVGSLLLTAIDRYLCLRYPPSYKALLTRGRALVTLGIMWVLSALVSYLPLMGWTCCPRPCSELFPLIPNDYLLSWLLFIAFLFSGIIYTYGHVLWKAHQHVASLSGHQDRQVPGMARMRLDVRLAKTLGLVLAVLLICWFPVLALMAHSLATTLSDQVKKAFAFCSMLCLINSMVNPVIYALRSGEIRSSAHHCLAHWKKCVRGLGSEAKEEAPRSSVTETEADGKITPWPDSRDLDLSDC

FC1(F)CCN(c2nc(C3CCC3)nc3c2nnn3Cc2ccccc2Cl)C1 [Example 1, 3-[(2-Chlorophenyl)methyl]-5-cyclobutyl-7-(3,3-difluoropyrrolidin-1-yl)triazolo[4,5-d]pyrimidine]
EC50 (human CB2 receptor): 1 nM | EC50 (human CB1 receptor): > 10000 nM

COc1ccc(Cn2nnc3c(N4CCC(F)(F)C4)nc(C4CC4)nc32)cc1 [Example 2, 5-Cyclopropyl-7-(3,3-difluoropyrrolidin-1-yl)-3-[(4-methoxyphenyl)methyl]triazolo [4,5-d]pyrimidine]
EC50 (human CB2 receptor): 6.4 nM | EC50 (human CB1 receptor): > 10000 nM

CC(C)c1nc(N2CCC(F)(F)C2)c2nnn(Cc3ccccc3Cl)c2n1 [Example 3, 3-[(2-Chlorophenyl)methyl]-7-(3,3-difluoropyrrolidin-1-yl)-5-isopropyl-triazolo[4,5-d]pyrimidine]
EC50 (human CB2 receptor): 0.5 nM | EC50 (human CB1 receptor): 770 nM

FC1(F)CCN(c2nc(C3CC3)nc3c2nnn3Cc2ccccc2Cl)C1 [Example 4, 3-[(2-Chlorophenyl)methyl]-5-cyclopropyl-7-(3,3-difluoropyrrolidin-1-yl)triazolo[4,5-d]pyrimidine]
EC50 (human CB2 receptor): 1 nM | EC50 (human CB1 receptor): 750 nM

Cc1nonc1Cn1nnc2c(N3CCC(F)(F)C3)nc(C3CC3)nc21 [Example 5, 3-[[5-Cyclopropyl-7-(3,3-difluoropyrrolidin-1-yl)triazolo[4,5-d]pyrimidin-3-yl]methyl]-4-methyl-1,2,5-oxadiazole]
EC50 (human CB2 receptor): 1 nM | EC50 (human CB1 receptor): > 10000 nM

C=C(C)c1nc(N2CC[C@H](O)C2)c2nnn(Cc3ccccc3Cl)c2n1 [Example 6, (3S)-1-[3-[(2-Chlorophenyl)methyl]-5-prop-1-en-2-yltriazolo[4,5-d]pyrimidin-7-yl]pyrrolidin-3-ol]
EC50 (human CB2 receptor): 3.6 nM | EC50 (human CB1 receptor): > 10000 nM

Clc1ccccc1Cn1nnc2c(N3CCCCC3)nc(N3CCCCC3)nc21 [Example 7, 3-[(2-Chlorophenyl)methyl]-5,7-di(piperidin-1-yl)triazolo[4,5-d]pyrimidine]
EC50 (human CB2 receptor): 9.2 nM | EC50 (human CB1 receptor): > 10000 nM

CCNc1nc(N2CCC(F)(F)C2)c2nnn(Cc3ccccc3Cl)c2n1 [Example 8, 3-[(2-Chlorophenyl)methyl]-7-(3,3-difluoropyrrolidin-1-yl)-N-ethyltriazolo[4,5-d]pyrimidin-5-amine]
EC50 (human CB2 receptor): 4.5 nM | EC50 (human CB1 receptor): > 10000 nM

FC1(F)CCN(c2nc(N3CCC3)nc3c2nnn3Cc2ccccc2Cl)C1 [Example 9, 5-(Azetidin-1-yl)-3-[(2-chlorophenyl)methyl]-7-(3,3-difluoropyrrolidin-1-yl)triazolo [4,5-d]pyrimidine]
EC50 (human CB2 receptor): 1.6 nM | EC50 (human CB1 receptor): 363 nM

FC1(F)CCN(c2nc(N3CCCC3)nc3c2nnn3Cc2ccccc2Cl)C1 [Example 10, 3-[(2-Chlorophenyl)methyl]-7-(3,3-difluoropyrrolidin-1-yl)-5-pyrrolidin-1-yltriazolo[4,5-d]pyrimidine]
EC50 (human CB2 receptor): 2.9 nM | EC50 (human CB1 receptor): 217 nM

FC1(F)CCN(c2nc(NC3CCC3)nc3c2nnn3Cc2ccccc2Cl)C1 [Example 11, 3-[(2-Chlorophenyl)methyl]-N-cyclobutyl-7-(3,3-difluoropyrrolidin-1-yl)triazolo[4,5-d]pyrimidin-5-amine]
EC50 (human CB2 receptor): 2.6 nM | EC50 (human CB1 receptor): > 10000 nM

CC(C)(C)Nc1nc(N2CCC(F)(F)C2)c2nnn(Cc3ccccc3Cl)c2n1 [Example 12, N-tert-Butyl-3-[(2-chlorophenyl)methyl]-7-(3,3-difluoropyrrolidin-1-yl)triazolo[4,5-d]pyrimidin-5-amine]
EC50 (human CB2 receptor): 0.9 nM | EC50 (human CB1 receptor): 365 nM

CC1(Nc2nc(N3CCC(F)(F)C3)c3nnn(Cc4ccccc4Cl)c3n2)COC1 [Example 13, 3-[(2-Chlorophenyl)methyl]-7-(3,3-difluoropyrrolidin-1-yl)-N-(3-methyloxetan-3-yl)triazolo[4,5-d]pyrimidin-5-amine]
EC50 (human CB2 receptor): 12.5 nM | EC50 (human CB1 receptor): > 10000 nM

FC1(F)CCN(c2nc(N3CCOCC3)nc3c2nnn3Cc2ccccc2Cl)C1 [Example 14, 4-[3-[(2-Chlorophenyl)methyl]-7-(3,3-difluoropyrrolidin-1-yl)triazolo[4,5-d]pyrimidin-5-yl]morpholine]
EC50 (human CB2 receptor): 3.5 nM | EC50 (human CB1 receptor): > 10000 nM

CN(c1nc(N2CCC(F)(F)C2)c2nnn(Cc3ccccc3Cl)c2n1)C(C)(C)C [Example 15, N-tert-Butyl-3-[(2-chlorophenyl)methyl]-7-(3,3-difluoropyrrolidin-1-yl)-N-methyltriazolo[4,5-d]pyrimidin-5-amine]
EC50 (human CB2 receptor): 2.2 nM | EC50 (human CB1 receptor): 336 nM

CC(C)(C)CNc1nc(N2CCC(F)(F)C2)c2nnn(Cc3ccccc3Cl)c2n1 [Example 16, 3-[(2-Chlorophenyl)methyl]-7-(3,3-difluoropyrrolidin-1-yl)-N-(2,2-dimethylpropyl) triazolo[4,5-d]pyrimidin-5-amine]
EC50 (human CB2 receptor): 3.1 nM | EC50 (human CB1 receptor): > 10000 nM

FC1(F)CCN(c2nc(NC3COC3)nc3c2nnn3Cc2ccccc2Cl)C1 [Example 17, 3-[(2-Chlorophenyl)methyl]-7-(3,3-difluoropyrrolidin-1-yl)-N-(oxetan-3-yl)triazolo [4,5-d]pyrimidin-5-amine]
EC50 (human CB2 receptor): 26.6 nM | EC50 (human CB1 receptor): > 10000 nM

CN(c1nc(N2CCC(F)(F)C2)c2nnn(Cc3ccccc3Cl)c2n1)C1CCC1 [Example 18, 3-[(2-Chlorophenyl)methyl]-N-cyclobutyl-7-(3,3-difluoropyrrolidin-1-yl)-N-methyltriazolo[4,5-d]pyrimidin-5-amine]
EC50 (human CB2 receptor): 8.1 nM | EC50 (human CB1 receptor): 967 nM

COc1ccc(Cn2nnc3c(N4CC[C@H](O)C4)nc(NC(C)(C)C)nc32)cc1 [Example 19, (3S)-1-[5-(tert-Butylamino)-3-[(4-methoxyphenyl)methyl]triazolo[4,5-d]pyrimidin-7-yl]pyrrolidin-3-ol]
EC50 (human CB2 receptor): 27.4 nM | EC50 (human CB1 receptor): > 10000 nM

COc1ccc(Cn2nnc3c(N4CCC(F)(F)C4)nc(NC(C)(C)C)nc32)cc1 [Example 20, N-tert-Butyl-7-(3,3-difluoropyrrolidin-1-yl)-3-[(4-methoxyphenyl)methyl]triazolo [4,5-d]pyrimidin-5-amine]
EC50 (human CB2 receptor): 20.3 nM | EC50 (human CB1 receptor): > 10000 nM

COc1ccc(Cn2nnc3c(N4CC[C@H](NC(C)=O)C4)nc(NC(C)(C)C)nc32)cc1 [Example 21, N-[(3S)-1-[5-(tert-Butylamino)-3-[(4-methoxyphenyl)methyl]triazolo[4,5-d]pyrimidin-7-yl]pyrrolidin-3-yl]acetamide]
EC50 (human CB2 receptor): 141 nM | EC50 (human CB1 receptor): > 10000 nM

CC(C)(C)Nc1nc(N2CCC(F)(F)C2)c2nnn(Cc3ccccc3C(F)(F)F)c2n1 [Example 22, N-tert-Butyl-7-(3,3-difluoropyrrolidin-1-yl)-3-[[2-(trifluoromethyl)phenyl]methyl]triazolo[4,5-d]pyrimidin-5-amine]
EC50 (human CB2 receptor): 2.1 nM | EC50 (human CB1 receptor): > 10000 nM

CC(C)(C)Nc1nc(N2CCC(F)(F)C2)c2nnn(Cc3ccccc3S(C)(=O)=O)c2n1 [Example 23, N-tert-Butyl-7-(3,3-difluoropyrrolidin-1-yl)-3-[(2-methylsulfonylphenyl)methyl]triazolo[4,5-d]pyrimidin-5-amine]
EC50 (human CB2 receptor): 1.1 nM | EC50 (human CB1 receptor): 487 nM

CC(C)(C)Nc1nc(N2CCC(F)(F)C2)c2nnn(Cc3ncccc3Cl)c2n1 [Example 24, N-tert-Butyl-3-[(3-chloropyridin-2-yl)methyl]-7-(3,3-difluoropyrrolidin-1-yl)triazolo [4,5-d]pyrimidin-5-amine]
EC50 (human CB2 receptor): 3.4 nM | EC50 (human CB1 receptor): > 10000 nM

Cn1nnnc1Cn1nnc2c(N3CCC(F)(F)C3)nc(NC(C)(C)C)nc21 [Example 25, N-tert-Butyl-7-(3,3-difluoropyrrolidin-1-yl)-3-[(1-methyltetrazol-5-yl)methyl]triazolo [4,5-d]pyrimidin-5-amine]
EC50 (human CB2 receptor): 7.5 nM | EC50 (human CB1 receptor): > 10000 nM

Cc1nonc1Cn1nnc2c(N3CCC(F)(F)C3)nc(NC(C)(C)C)nc21 [Example 26, N-tert-Butyl-7-(3,3-difluoropyrrolidin-1-yl)-3-[(4-methyl-1,2,5-oxadiazol-3-yl)methyl]triazolo[4,5-d]pyrimidin-5-amine]
EC50 (human CB2 receptor): 1 nM | EC50 (human CB1 receptor): > 10000 nM

CC(=O)N[C@H]1CCN(c2nc(NC(C)(C)C)nc3c2nnn3Cc2ncccc2Cl)C1 [Example 27, N-[(3S)-1-[5-(tert-Butylamino)-3-[(3-chloropyridin-2-yl)methyl]triazolo[4,5-d]pyrimidin-7-yl]pyrrolidin-3-yl]acetamide]
EC50 (human CB2 receptor): 267 nM | EC50 (human CB1 receptor): > 10000 nM

CC(C)(C)Nc1nc(N2CC[C@H](O)C2)c2nnn(Cc3ccccc3Cl)c2n1 [Example 28, (3S)-1-[5-(tert-Butylamino)-3-[(2-chlorophenyl)methyl]triazolo[4,5-d]pyrimidin-7-yl]pyrrolidin-3-ol]
EC50 (human CB2 receptor): 2.3 nM | EC50 (human CB1 receptor): > 10000 nM
